Data reported in patent publication US20200181104A1, “SSAO INHIBITORS AND USES THEREOF” (METACRINE, INC., priority 2018, published 2020).
Counter-ions that a name gives are not always drawn.

Target: T1, Recombinant Human SSAO/VAP-1/AOC3 (Homo sapiens, UniProt Q16853)
T1 construct: purchased R&D systems 3957-AO
T1 sequence (Q16853 1-763): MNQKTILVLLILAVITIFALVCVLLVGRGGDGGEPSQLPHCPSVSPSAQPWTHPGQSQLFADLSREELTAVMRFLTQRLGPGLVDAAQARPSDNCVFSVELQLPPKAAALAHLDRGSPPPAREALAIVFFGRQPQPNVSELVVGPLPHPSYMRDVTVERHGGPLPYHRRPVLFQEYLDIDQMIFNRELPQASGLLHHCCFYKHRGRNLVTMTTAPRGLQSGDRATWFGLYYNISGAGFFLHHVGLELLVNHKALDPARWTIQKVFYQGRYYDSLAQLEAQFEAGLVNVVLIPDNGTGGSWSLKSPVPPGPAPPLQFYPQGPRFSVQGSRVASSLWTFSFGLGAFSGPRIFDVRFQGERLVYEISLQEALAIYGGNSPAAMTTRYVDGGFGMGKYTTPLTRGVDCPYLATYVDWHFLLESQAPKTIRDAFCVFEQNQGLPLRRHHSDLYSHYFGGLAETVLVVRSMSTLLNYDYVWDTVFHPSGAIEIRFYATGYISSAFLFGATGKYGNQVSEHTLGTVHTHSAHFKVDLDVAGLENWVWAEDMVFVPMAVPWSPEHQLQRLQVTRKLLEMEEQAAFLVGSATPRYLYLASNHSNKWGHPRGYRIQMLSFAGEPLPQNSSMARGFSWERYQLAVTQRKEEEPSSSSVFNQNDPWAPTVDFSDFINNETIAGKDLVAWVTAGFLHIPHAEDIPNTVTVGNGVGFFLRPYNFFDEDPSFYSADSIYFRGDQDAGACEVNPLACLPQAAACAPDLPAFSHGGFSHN
Assay: Human Semicarbazide-Sensitive Amine Oxidase (SSAO) Assay
Type: biochemical
Settings: recombinant enzyme, 30 minutes preincubation at 37° C., benzylamine substrate, Amplex Ultra Red/HRP fluorescence
Method: Compounds were dissolved in DMSO to provide a Concentration Response Curve (CRC; at 500 times the final concentration) over a range of 6-10 dilutions.
Recombinant Human SSAO/VAP-1/AOC3 (R&D systems; Catalog #3957-AO) was used to screen compound potency in vitro, according to previously described methods (J Pharmacol Exp Ther. 2013 November; 347(2):365-74). SSAO enzyme was suspended in 50 mM HEPES buffer to a working concentration of 2.5 μg/ml and 40 μL of this enzyme mixture was then added to each well of a F16 Black Maxisorp 96 well Plate (Nunc, Catalog #475515). Ten microliters of each test compound (at 5 times the final concentration) were added to each well, resulting in a final well volume of 50 μL of the enzyme and inhibitor mixture. The compounds were preincubated with the enzyme for 30 minutes at 37° C., prior to the addition of a 40 μL volume of Amplex Ultra Red (125 uM AUR; Molecular Probes, Catalog # A36006)/Horseradish peroxidase (2.5 U/ml HRP; Sigma-Aldrich Catalog # P8375) oxidase detection reagent containing cytochrome C ([…]; Sigma-Aldrich Catalog # C7752). Cytochrome C was included in the AUR/HRP detection mixture to reduce the background fluorescence that can occur via the spontaneous redox reaction between AUR and HRP. The SSAO enzyme reaction was then initiated by adding 10 μL of the SSAO substrate, benzylamine (Sigma-Aldrich Catalog # B5136), and SSAO activity was measured in kinetic mode over a 30-120 minute sampling period (excit. 544 nm; emit 590 nm; cut off 570 nm; medium gain) to obtain IC50 values for enzyme activity in each treatment well.

Row | IC50 | SMILES
1 | ≤ 10 nM | CNC(=O)[C@H]1C2CC3CC1C[C@@](c1ccc(OC/C(=C/F)CN)cc1)(C3)C2 (single isomer, unassigned) [Compound 6, anti-5-(4-(((E)-2-(Aminomethyl)-3-fluoroallyl)oxy)phenyl)-N-methyladamantane-2-carboxamide Hydrochloride]
2 | ≤ 10 nM | CNC(=O)[C@H]1C2CC3CC1C[C@](c1ccc(OC/C(=C/F)CN)cc1)(C3)C2 (single isomer, unassigned) [Compound 6.01, syn-5-(4-(((E)-2-(Aminomethyl)-3-fluoroallyl)oxy)phenyl)-N-methyladamantane-2-carboxamide Hydrochloride]
3 | ≤ 10 nM | NC/C(=C\F)COc1ccc([C@]23CC4CC(C2)[C@@H](C(=O)NC2CCOCC2)C(C4)C3)cc1 (single isomer, unassigned) [Compound 6.02, syn-5-(4-(((E)-2-(Aminomethyl)-3-fluoroallyl)oxy)phenyl)-N-(tetrahydro-2H-pyran-4-yl)adamantane-2-carboxamide Hydrochloride]
4 | ≤ 10 nM | NC/C(=C\F)COc1ccc([C@]23CC4CC(C2)[C@H](C(=O)NC2CCOCC2)C(C4)C3)cc1 (single isomer, unassigned) [Compound 6.03, anti-5-(4-(((E)-2-(Aminomethyl)-3-fluoroallyl)oxy)phenyl)-N-(tetrahydro-2H-pyran-4-yl)adamantane-2-carboxamide Hydrochloride]
5 | ≤ 10 nM | NC/C(=C\F)COc1ccc(C23CCC(C(=O)NC4[C@H]5COC[C@H]45)(CC2)CC3)cc1 (stereo in doubt) [Compound 2.66, 4-(4-(((E)-2-(aminomethyl)-3-fluoroallyl)oxy)phenyl)-N-((1R,5S,6s)-3-oxabicyclo[3.1.0]hexan-6-yl)bicyclo[2.2.2]octane-1-carboxamide]
6 | ≤ 10 nM | NC/C(=C\F)COc1ccc(C23CCC(C(=O)NC4[C@H]5COC[C@H]45)(CC2)CC3)cc1 (stereo in doubt) [Compound 2.70, 4-(4-(((E)-2-(aminomethyl)-3-fluoroallyl)oxy)phenyl)-N-((1R,5S,6r)-3-oxabicyclo[3.1.0]hexan-6-yl)bicyclo[2.2.2]octane-1-carboxamide]
7 | ≤ 10 nM | CO[C@@H]1CCCC(NC(=O)C23CCC(c4ccc(OC/C(=C/F)CN)cc4)(CC2)CC3)C1 (stereo in doubt) [Compound 2.115, 4-(4-(((E)-2-(aminomethyl)-3-fluoroallyl)oxy)phenyl)-N-((1S,3R)-3-methoxycyclohexyl)bicyclo [2.2.2]octane-1-carboxamide]
8 | ≤ 10 nM | NC/C(=C\F)COc1ccc(C2(C(N)=O)CCCCC2)cc1 [Compound 1, (E)-1-(4-((2-(Aminomethyl)-3-fluoroallyl)oxy)phenyl)cyclohexanecarboxamide Hydrochloride]
9 | 10 to 100 nM | CNC(=O)C1(c2ccc(OC/C(=C/F)CN)cc2)CCCCC1 [Compound 1.01, (E)-1-(4-((2-(Aminomethyl)-3-fluoroallyl)oxy)phenyl)-N-methylcyclohexanecarboxamide]
10 | ≤ 10 nM | CNC(=O)C12CCC(c3ccc(OC/C(=C/F)CN)c(C)c3)(CC1)CC2 [Compound 2, (E)-4-(4-((2-(aminomethyl)-3-fluoroallyl)oxy)-3-methylphenyl)-N-methylbicyclo[2.2.2]octane-1-carboxamide]
11 | ≤ 10 nM | CNC(=O)C12CCC(c3ccc(OC/C(=C\F)CN)c(C)c3)(CC1)CC2 [Compound 2.01, (Z)-4-(4-((2-(aminomethyl)-3-fluoroallyl)oxy)-3-methylphenyl)-N-methylbicyclo[2.2.2]octane-1-carboxamide]
12 | ≤ 10 nM | Cc1cc(C23CCC(C(N)=O)(CC2)CC3)ccc1OC/C(=C/F)CN [Compound 2.02, (E)-4-(4-((2-(aminomethyl)-3-fluoroallyl)oxy)-3-methylphenyl)bicyclo[2.2.2] octane-1-carboxamide]
13 | ≤ 10 nM | CNC(=O)C12CCC(c3ccc(OC/C(=C/F)CN)cc3)(CC1)CC2 [Compound 2.03, (E)-4-(4-((2-(aminomethyl)-3-fluoroallyl)oxy)phenyl)-N-methylbicyclo[2.2.2]octane-1-carboxamide Hydrochloride]
14 | ≤ 10 nM | COC(=O)C12CCC(c3ccc(OC/C(=C/F)CN)cc3)(CC1)CC2 [Compound 2.04, (E)-methyl 4-(4-((2-(aminomethyl)-3-fluoroallyl)oxy)phenyl)bicyclo [2.2.2]octane-1-carboxylate]
15 | 10 to 100 nM | NC/C(=C\F)COc1ccc(C23CCC(C(=O)O)(CC2)CC3)cc1 [Compound 2.05, (E)-4-(4-((2-(amino-methyl)-3-fluoroallyl)oxy)phenyl) bicyclo[2.2.2]octane-1-carboxylic acid]
16 | ≤ 10 nM | NC/C(=C\F)COc1ccc(C23CCC(C(=O)NC4CCOCC4)(CC2)CC3)cc1 [Compound 2.06, (E)-4-(4-((2-(Aminomethyl)-3-fluoroallyl)oxy)phenyl)-N-(tetrahydro-2H-pyran-4-yl)bicyclo[2.2.2]octane-1-carboxamide Hydrochloride]
17 | ≤ 10 nM | NC/C(=C/F)COc1ccc(C23CCC(C(=O)NC4CCOCC4)(CC2)CC3)cc1 [Compound 2.06b, (Z)-4-(4-((2-(amino-methyl)-3-fluoroally)oxy)phenyl)-N-(tetrahydro-2H-pyran-4-yl)bicyclo[2.2.2]octane-1-carboxamide]
18 | ≤ 10 nM | NC/C(=C\F)COc1ccc(C23CCC(C(=O)N4CCOCC4)(CC2)CC3)cc1 [Compound 2.07]
19 | ≤ 10 nM | NC/C(=C\F)COc1ccc(C23CCC(C(=O)NCCC(=O)O)(CC2)CC3)cc1 [Compound 2.08, (E)-3-(4-(4-((2-(aminomethyl)-3-fluoroallyl)oxy)phenyl)bicyclo[2.2.2]octane-1-carboxamido)propanoic acid]
20 | ≤ 10 nM | NC/C(=C\F)COc1ccc(C23CCC(C(=O)NCc4nnn[nH]4)(CC2)CC3)cc1 [Compound 2.09, (E)-N-((1H-tetrazol-5-yl)methyl)-4-(4-((2-(aminomethyl)-3-fluoroallyl)oxy)phenyl) bicyclo[2.2.2]octane-1-carboxamide]
21 | ≤ 10 nM | NC/C(=C\F)COc1ccc(C23CCC(C(N)=O)(CC2)CC3)cc1 [Compound 2.10, (E)-4-(4-((2-(aminomethyl)-3-fluoroallyl)oxy)phenyl) bicyclo[2.2.2]octane-1-carboxamide]
22 | ≤ 10 nM | NC/C(=C\F)COc1ccc(C23CCC(C(=O)NCCc4nnn[nH]4)(CC2)CC3)cc1 [Compound 2.11, (E)-N-(2-(1H-tetrazol-5-yl)ethyl)-4-(4-((2-(aminomethyl)-3-fluoroallyl)oxy)phenyl) bicyclo[2.2.2]octane-1-carboxamide]
23 | ≤ 10 nM | COC(=O)C1CCN(C(=O)C23CCC(c4ccc(OC/C(=C/F)CN)cc4)(CC2)CC3)CC1 [Compound 2.12, (E)-methyl 1-(4-(4-((2-(aminomethyl)-3-fluoroallyl)oxy)phenyl)bicyclo[2.2.2]octane-1-carbonyl)piperidine-4-carboxylate]
24 | ≤ 10 nM | NC/C(=C\F)COc1ccc(C23CCC(C(=O)N4CC(C(=O)O)C4)(CC2)CC3)cc1 [Compound 2.13, (E)-1-(4-(4-((2-(aminomethyl)-3-fluoroallyl)oxy)phenyl)bicyclo[2.2.2]octane-1-carbonyl)azetidine-3-carboxylic acid]
25 | ≤ 10 nM | NC/C(=C\F)COc1ccc(C23CCC(C(=O)N4CCC(O)CC4)(CC2)CC3)cc1 [Compound 2.14, (E)-(4-(4-((2-(aminomethyl)-3-fluoroallyl)oxy)phenyl)bicyclo[2.2.2]octan-1-yl) (4-hydroxypiperidin-1-yl)methanone]
26 | ≤ 10 nM | COCCNC(=O)C12CCC(c3ccc(OC/C(=C/F)CN)cc3)(CC1)CC2 [Compound 2.15, (E)-4-(4-((2-(aminomethyl)-3-fluoroallyl)oxy)phenyl)-N-(2-methoxyethyl) bicyclo[2.2.2] octane-1-carboxamide]
